A word on the IC50: it is the midpoint of a concentration-inhibition curve. One may read the Kd as the constant that tells how readily two partners part at equilibrium.

One experiment concerns the target T1, human p38α (MAPK14) (Homo sapiens, UniProt Q16539).
T1 construct: GST; purchased Invitrogen
Nature of the experiment: AlphaScreen kinase activity assay, human p38α. Format: biochemical. As to the method:
(§1) The inhibitory activity of CHF6297 was determined using an AlphaScreen® (PerkinElmer)-based kinase activity assay as previously described ([Armani et al., 2022]). Kinase reactions consisted of 25 mM 4-(2-hydroxyethyl)-1-piperazine ethanesulfonic acid (HEPES), pH 7.5; 10 mM MgCl2; 100 μM Na3VO4; 2 mM DTT; 0.05 mg/mL Tween^TM 20; 100 pM solution of p38α, p38β, p38δ, or p38γ (Invitrogen); 1% DMSO; and 0.3 μg/mL ATF-2 fusion protein (New England Biolabs). Compounds were incubated under these conditions for 2 h, at 25°C, prior to the initiation of kinase activity by the addition of 250 μM ATP. […] Detection was performed by measuring luminescence following the addition of AlphaScreen donor beads (PerkinElmer, 6765300) and Protein A AlphaScreen acceptor beads (PerkinElmer, 6760137), both at a final concentration of 20 μg/mL. IC50 values were determined from concentration–response curves. […]
(§2) CHF6297 was tested in biochemical enzymatic assays to determine its potency as an inhibitor of human p38α (MAPK14) and of the other human p38 isoforms, p38β (MAPK11), p38γ ([…]), and p38δ ([…]) ([Armani et al., 2022]). Activity in the primary screening assay was determined using AlphaScreen technology, in which a peptide (ATF2) is phosphorylated by the appropriate GST-tagged p38 protein isoform in the presence of CHF6297 at concentrations from semi-logarithmic dilutions. […]
(In general: Alpha assays give light when donor and acceptor beads are brought close together.)

The target of the next experiment is T2, human p38β (MAPK11) (Homo sapiens, UniProt Q15759).
T2 construct: GST; purchased Invitrogen
T2 sequence (Q15759 whole entry): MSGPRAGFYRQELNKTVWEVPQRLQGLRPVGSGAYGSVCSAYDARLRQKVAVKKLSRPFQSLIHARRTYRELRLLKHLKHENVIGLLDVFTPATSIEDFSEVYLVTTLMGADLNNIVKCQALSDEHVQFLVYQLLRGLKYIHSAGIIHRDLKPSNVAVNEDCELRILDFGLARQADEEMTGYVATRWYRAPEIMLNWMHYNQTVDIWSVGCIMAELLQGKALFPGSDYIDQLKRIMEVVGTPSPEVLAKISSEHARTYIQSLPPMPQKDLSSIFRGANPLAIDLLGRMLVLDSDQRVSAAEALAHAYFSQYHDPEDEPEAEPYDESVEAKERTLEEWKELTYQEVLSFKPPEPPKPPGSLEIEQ
Kind of experiment: AlphaScreen kinase activity assay, human p38β. In kind it is biochemical. Here is the method: as §1, §2

For experiment [1], the target named is T3, human p38γ (Homo sapiens, UniProt P53778).
T3 construct: GST; purchased Invitrogen
T3 sequence (P53778 1-367): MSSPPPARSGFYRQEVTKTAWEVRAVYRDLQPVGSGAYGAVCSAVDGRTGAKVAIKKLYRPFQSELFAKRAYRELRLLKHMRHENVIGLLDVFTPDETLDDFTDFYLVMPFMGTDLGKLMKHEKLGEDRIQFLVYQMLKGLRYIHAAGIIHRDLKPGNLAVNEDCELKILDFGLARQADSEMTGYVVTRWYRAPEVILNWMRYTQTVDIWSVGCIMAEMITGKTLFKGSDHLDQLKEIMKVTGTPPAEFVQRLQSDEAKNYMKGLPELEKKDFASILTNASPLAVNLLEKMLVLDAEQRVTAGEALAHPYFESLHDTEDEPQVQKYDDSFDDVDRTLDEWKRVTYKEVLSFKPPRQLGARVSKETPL
Nature of the experiment: AlphaScreen kinase activity assay, human p38γ. Format: biochemical. As to the method:
as §1, §2

Experiment [2] addresses T3, human p38γ. Nature of the experiment: KINOMEscan competition binding assay (DiscoverX), p38γ. The note with it: read-out: Kd (mean ± s.d.). The source says: The KINOMEscan® platform (DiscoverX) was used, which uses a novel and proprietary active site-directed competition binding assay to quantitatively measure the interactions between human p38 isoforms and the target compound.

Another experiment relates to HBSMCs. Kind of experiment: CSE-evoked IL-8 release in human bronchial smooth muscle cells. Format: cell-based. Here is the method:
Cigarette smoke extract (CSE) was generated as reported previously ([Moretto et al., 2012]). Briefly, aqueous CSE was obtained from the combustion of four cigarettes (Marlboro Red, 12 mg tar, 0.9 mg nicotine each) bubbled through 50 mL of the culture medium and subsequently filtered through a 0.2-μm-pore filter (Millipore, Billerica, MA). To ensure reproducibility among different CSE batches, the absorbance [optical density (OD)] measured at 320 nm was used as a measure of the “strength” of the extract. Dilutions were made with culture media to obtain the desired absorbance. The CSE was freshly prepared on the day of the experiment and immediately used after preparation. Human bronchial smooth muscle cells (HBSMCs) were seeded in DMEM with 10% FBS (50 U/mL penicillin, 0.05 mg/mL streptomycin, and 2 mM L-glutamine) in 48-well plates at a density of 10,000 cells/well, grown to ∼80%–90% confluence and incubated overnight in serum-free DMEM before treatments. All the treatments were performed in serum-free DMEM. The cells were pretreated for 30 min with either the vehicle or CHF6297 or losmapimod before stimulation with freshly prepared CSE, TNF-α, (1 ng/mL), or the vehicle for 18 h at 37°C. Human IL-8 was measured in the collected supernatants by use of a paired-antibody quantitative ELISA kit (BioSource International, Camarillo, CA).

Where [3] appears, read: n = 3, read-out: IC50 (mean ± s.d.).

T1 sequence (Q16539 whole entry): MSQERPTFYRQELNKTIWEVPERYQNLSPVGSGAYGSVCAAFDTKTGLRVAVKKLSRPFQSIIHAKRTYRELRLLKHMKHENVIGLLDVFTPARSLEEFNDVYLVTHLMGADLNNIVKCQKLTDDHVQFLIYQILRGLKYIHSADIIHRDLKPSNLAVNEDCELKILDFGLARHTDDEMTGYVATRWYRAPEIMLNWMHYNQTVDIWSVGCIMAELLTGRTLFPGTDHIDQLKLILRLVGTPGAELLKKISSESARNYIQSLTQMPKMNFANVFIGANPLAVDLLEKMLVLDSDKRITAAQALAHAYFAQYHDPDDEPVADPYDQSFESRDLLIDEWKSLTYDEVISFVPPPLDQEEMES

For the compound `C[C@H]1CCCCN1c1nnc2ccc(O[C@@H]3CC[C@H](NC(=O)Nc4cc(C(C)(C)C)nn4-c4cnn(CCN(C)C)c4)c4ccccc43)cn12` [CHF6297], the figures for the “IC50 fold-difference vs. human p38α” value against human p38α (MAPK14), on human p38β (MAPK11) and against human p38γ [1] were 1, 1.4 and 6,750, respectively. Also, the IC50 on human p38α (MAPK14) (setting [3]) worked out at 0.14 ± 0.06 nM; on human p38β (MAPK11) (setting [3]), 0.2 ± 0.017 nM; at human p38γ [1] (setting [3]), 945 ± 58 nM; with HBSMCs (Homo sapiens, 18 h), 0.79 nM. On human p38γ [2], the Kd was over 1000 nM. In the experiment on HBSMCs (CSE-evoked), the “maximum inhibition of IL-8” value was 100%.

The record behind these values is PMC10973839, “CHF6297: a novel potent and selective p38 MAPK inhibitor with robust anti-inflammatory activity and suitable for inhaled pulmonary administration as dry powder” (Frontiers in Pharmacology, 2024).
